Measurements published in patent US5780509A, “Compound bearing two, 2,6-diiodophenol-4-YL groups and diagnostic drug for iodine allergy” (Muromachi Kagaku Kogyo Kaisha, Ltd., priority 1994, dated 1998).
Non-standard residues stand in square brackets, D forms with d. Residues, ends and D or L forms follow the SMILES beside them. No end group written: not given here. Tyr(3,5-I2) = N[C@@H](Cc1cc(I)c(O)c(I)c1)C(=O)O

How the values were obtained:
[1] = test system: guinea-pigs immunized with iodine (iodine-sensitized) and non-sensitized guinea-pigs; experiment: Active cutaneous anaphylaxis (ACA) reaction, elicitation antigenicity; format: in vivo, guinea-pig (male SPF, Hartley strain); parameters: key to Mean diameter of blue spots, non-sensitized guinea-pig / Mean diameter of blue spots, iodine-sensitized guinea pig (second value) / Mean diameter of blue spots, iodine-sensitized guinea pig (first value): --: Negative response; **: Weak response; conditions: for Mean diameter of blue spots, iodine-sensitized guinea pig (first value) / Mean diameter of blue spots, iodine-sensitized guinea pig (second value) / Mean diameter of blue spots, non-sensitized guinea-pig: 30 min; for ACA reaction (in words): intradermal injection, guinea-pigs sensitized with iodine
From the text: The elicitation antigenicity of iodinated tyrosine derivatives was studied in the bases of the active cutaneous anaphylaxis (ACA) reaction in guinea-pigs immunized with iodine.
Animals: Male SPF guinea-pigs of Hartley strain, weighing 300~350 g were purchased from Charles River Japan Co., Ltd. These were immunized after having been acclimated for one week.
Sensitization: A solution of iodine potassium iodide (Wako Junyaku, special grade reagent) and complete Freund's adjuvant (Difco) were mixed in equal amounts to form an emulsion. This was administered subcutaneously into the back of guinea-pigs at a dose of 2 mg of iodine per animal 3 times at intervals of 2 weeks. Active cutaneous anaphylaxis (ACA) was elicited 2 weeks after the last sensitization injection.
ACA Induction: 2% Evans blue physiological solution (0.5 ml/animal) was administered intravenously to guinea-pigs, and immediately thereafter 0.1 ml of an elicitation antigen was administered intradermally into the back, and after 30 min. the existence of pigment leakage at the intradermally injected sites was observed.
Elicitation antigen: Iodinated dityrosine, iodinated trityrosine, iodinated dityrosylphenylalanine were administered intracutaneously at 0.1 ml/site. Guinea-pig serum albumin (fraction V: Sigma) was iodinated and used as a positive control. Corresponding noniodinated ones were also administered intradermally as negative controls.
Iodination reaction: To a 50 mM boric acid buffer solution (pH 9.5) of 10 mg/ml of dityrosine, trityrosine, or dityrosylphenylalanine (all produced by Sigma Co., Ltd.) or guinea-pig serum albumin (abbreviated hereafter as GSA), a 0.5M solution of iodine was added at a ratio of 10:1, and these were reacted at 37 C. overnight. The excess iodine in the reaction mixture was reduced by adding sodium thiosulfate (Nakarai Chemical Co., Ltd.). For purification of the iodinated tyrosine derivatives, the reaction mixture was extracted with ethyl acetate and dried with magnesium sulfate, and hexane was added to obtain crystals. For purification of the iodinated GSA, the reaction mixture was purified by passing it through a Sephadex G25 column.

anti-iodine antibody [2] = experiment: ELISA inhibition on anti-iodine antibody (single concentration); format: binding, guinea-pig; parameters: key to ELISA inhibitory activity, judgment: +: a compound had inhibitory activity; -: a compound did not have inhibitory activity
Procedure: (§1) Guinea-pigs were immunized with iodine by injecting subcutaneously 1 mg of iodine containing potassium iodide solution treated with complete Freund's adjuvant seven times at intervals of 2 weeks, and anti-iodine antiserum was obtained from these animals. Antibody titers of the sera were determined by enzyme linked immunosorbent assay (ELISA) using 96 well microplate coated with iodinated guinea pig serum albumin (I-GSA) ELISA inhibition activities of the following compounds were studied. The compounds used were potassium iodide, tyrosine and its derivatives such as L-tyrosine, monoiodo-L-tyrosine, diiodotyrosine, hexaiodo-L-trityrosine, L-hexatyrosine and 12 iodo-L-hexatyrosine, and iodinated X-ray contrast media such as amidotrizoic acid, iodamide, ioxaglic acid, iohexol, iopamidol and iomeprol.
(§2) ELISA inhibition study was performed as follows. Antibody concentration of anti-iodine antiserum gave the maximum optical density in ELISA till one hundredfold serum dilution. Accordingly, seven steps of twofold serial dilution of anti-iodine antiserum, starting from 50-fold serum dilution, were made with physiological saline as a diluent. To each of the serially diluted sera, were added equal volume of solution containing each of the test compounds described above. After overnight incubation at 4 C, antibody activity was determined by ELISA. Phosphate buffered physiological saline (PBS) was used as a control. ELISA inhibitory activities of the test compounds were determined at the serum dilution which gave about 50% of the maximum optical density (OD415nm =2.6) of ELISA of control at serum dilution of one hundredfold. The inhibitory activity was calculated by the following calculation formula.
Inhibition rate=[1-Optical density under test compouund/Optical density

anti-iodine antibody [3] = experiment: ELISA inhibition potency (OD50) on anti-iodine antibody; format: binding, guinea-pig; conditions: serial twofold dilution, equal volume of 50-fold diluted anti-iodine antiserum; read-out: Inhibitory activity (OD50): concentration which decreased optical density of ELISA to a half of the control
Procedure: as §1, §2
In the next, ELISA inhibition study was undertaken to determine the potency of ELISA inhibitory activity of active compounds. […] The inhibitory activity was expressed as the concentration which decreased optical density of ELISA to a half (OD50) of the control.

`N[C@@H](Cc1cc(I)c(O)c(I)c1)C(=O)N[C@@H](Cc1cc(I)c(O)c(I)c1)C(=O)O` (H-[Tyr(3,5-I2)]-[Tyr(3,5-I2)]-OH) was tested, and the “Mean diameter of blue spots, iodine-sensitized guinea pig (first value)” value (from here on “Mean diameter of blue spots … (first value)”) ([1]; 1 μg/site intradermal) was “--”, the “Mean diameter of blue spots, iodine-sensitized guinea pig (second value)” value (from here on “Mean diameter of blue spots … (second value)”) ([1]; 1 μg/site intradermal) was “--” and the “Mean diameter of blue spots, non-sensitized guinea-pig” value ([1]; 1 μg/site intradermal) was “--”. The “Mean diameter of blue spots … (first value)” value ([1]; 10 μg/site intradermal) was 5.0 mm, the “Mean diameter of blue spots … (second value)” value ([1]; 10 μg/site intradermal) was “--” and the “Mean diameter of blue spots, non-sensitized guinea-pig” value ([1]; 10 μg/site intradermal) was “--”. The “Mean diameter of blue spots … (first value)” value ([1]; 100 μg/site intradermal) was 7.0 mm, the “Mean diameter of blue spots … (second value)” value ([1]; 100 μg/site intradermal) was 5.0 mm and the “Mean diameter of blue spots, non-sensitized guinea-pig” value ([1]; 100 μg/site intradermal) was “--”. The “ACA reaction (in words)” value [1] was “ACA reaction was elicited”.

With `N[C@@H](Cc1cc(I)c(O)c(I)c1)C(=O)N[C@@H](Cc1cc(I)c(O)c(I)c1)C(=O)N[C@@H](Cc1cc(I)c(O)c(I)c1)C(=O)N[C@@H](Cc1cc(I)c(O)c(I)c1)C(=O)N[C@@H](Cc1cc(I)c(O)c(I)c1)C(=O)N[C@@H](Cc1cc(I)c(O)c(I)c1)C(=O)O` [12 iodo-L-hexatyrosine] (H-[Tyr(3,5-I2)][Tyr(3,5-I2)][Tyr(3,5-I2)][Tyr(3,5-I2)][Tyr(3,5-I2)][Tyr(3,5-I2)]-OH) the ELISA inhibition rate (anti-iodine antibody [2]; 1 mM) was 94.3%, the “ELISA inhibitory activity, judgment” value (anti-iodine antibody [2]; 1 mM) was “+” and the IC50 (anti-iodine antibody [3]) was 0.125 mM.

`CC(=O)Nc1c(I)c(NC(C)=O)c(I)c(C(=O)O)c1I` [Amidotrizoic acid] was tested, and the ELISA inhibition rate (anti-iodine antibody [2]; 10 mM) was 0.3% and the “ELISA inhibitory activity, judgment” value (anti-iodine antibody [2]; 10 mM) was “-”.

`N[C@@H](Cc1cc(I)c(O)c(I)c1)C(=O)O` [Diiodo-L-tyrosine] was tested, and the ELISA inhibition rate (anti-iodine antibody [2]; 10 mM) was 100%, the “ELISA inhibitory activity, judgment” value (anti-iodine antibody [2]; 10 mM) was “+” and the IC50 (anti-iodine antibody [3]) was 5 mM.

For `N[C@@H](Cc1ccc(O)cc1)C(=O)N[C@@H](Cc1ccc(O)cc1)C(=O)N[C@@H](Cc1ccccc1)C(=O)O` [Dityrosylphenylalanine, L-tyrosyl-L-tyrosylphenylalanine, reference compound] (H-Tyr-Tyr-Phe-OH), the “Mean diameter of blue spots … (first value)” value ([1]; 1000 μg/site intradermal) was “--”, the “Mean diameter of blue spots … (second value)” value ([1]; 1000 μg/site intradermal) was “--” and the “Mean diameter of blue spots, non-sensitized guinea-pig” value ([1]; 1000 μg/site intradermal) was “--”.

For `CC(=O)NCc1c(I)c(NC(C)=O)c(I)c(C(=O)O)c1I` [Iodamide], the ELISA inhibition rate (anti-iodine antibody [2]; 10 mM) was 3.5% and the “ELISA inhibitory activity, judgment” value (anti-iodine antibody [2]; 10 mM) was “+”.

`N[C@@H](Cc1cc(I)c(O)c(I)c1)C(=O)N[C@@H](Cc1cc(I)c(O)c(I)c1)C(=O)N[C@@H](Cc1ccccc1)C(=O)O` [Iodinated dityrosylphenylalanine] (H-[Tyr(3,5-I2)]-[Tyr(3,5-I2)]-Phe-OH) was tested, and the “Mean diameter of blue spots … (first value)” value ([1]; 1 μg/site intradermal) was “--”, the “Mean diameter of blue spots … (second value)” value ([1]; 1 μg/site intradermal) was “--” and the “Mean diameter of blue spots, non-sensitized guinea-pig” value ([1]; 1 μg/site intradermal) was “--”. The “Mean diameter of blue spots … (first value)” value ([1]; 10 μg/site intradermal) was 7.0 mm, the “Mean diameter of blue spots … (second value)” value ([1]; 10 μg/site intradermal) was “--” and the “Mean diameter of blue spots, non-sensitized guinea-pig” value ([1]; 10 μg/site intradermal) was “--”. The “Mean diameter of blue spots … (first value)” value ([1]; 100 μg/site intradermal) was 8.0 mm, the “Mean diameter of blue spots … (second value)” value ([1]; 100 μg/site intradermal) was 3.0 mm and the “Mean diameter of blue spots, non-sensitized guinea-pig” value ([1]; 100 μg/site intradermal) was “--”. The “ACA reaction (in words)” value [1] was “ACA reaction was elicited”.

In the case of `CC(=O)N(CC(O)CO)c1c(I)c(C(=O)NCC(O)CO)c(I)c(C(=O)NCC(O)CO)c1I` (stereo not shown) [Iohexol], the ELISA inhibition rate (anti-iodine antibody [2]; 10 mM) is reported as -5.0% and the “ELISA inhibitory activity, judgment” value (anti-iodine antibody [2]; 10 mM) is reported as “+”.

With `CN(C(=O)CO)c1c(I)c(C(=O)NCC(O)CO)c(I)c(C(=O)NCC(O)CO)c1I` (stereo not shown) [Iomeprol] the ELISA inhibition rate (anti-iodine antibody [2]; 10 mM) was -1.8% and the “ELISA inhibitory activity, judgment” value (anti-iodine antibody [2]; 10 mM) was “+”.

In the case of `C[C@H](O)C(=O)Nc1c(I)c(C(=O)NC(CO)CO)c(I)c(C(=O)NC(CO)CO)c1I` [Iopamidol], the ELISA inhibition rate (anti-iodine antibody [2]; 10 mM) is reported as -6.5% and the “ELISA inhibitory activity, judgment” value (anti-iodine antibody [2]; 10 mM) is reported as “+”.

`CNC(=O)c1c(I)c(C(=O)NCC(=O)Nc2c(I)c(C(=O)O)c(I)c(C(=O)NCCO)c2I)c(I)c(N(C)C(C)=O)c1I` [Ioxaglic acid] was tested, and the ELISA inhibition rate (anti-iodine antibody [2]; 10 mM) was -9.4% and the “ELISA inhibitory activity, judgment” value (anti-iodine antibody [2]; 10 mM) was “+”.

In the case of `N[C@@H](Cc1ccc(O)cc1)C(=O)O` [L-Tyrosine], the ELISA inhibition rate (anti-iodine antibody [2]; 10 mM) is reported as -2.6% and the “ELISA inhibitory activity, judgment” value (anti-iodine antibody [2]; 10 mM) is reported as “-”.

For `N[C@@H](Cc1ccc(O)c(I)c1)C(=O)O` [Monoiodo-L-tyrosine], the ELISA inhibition rate (anti-iodine antibody [2]; 10 mM) was 5.6% and the “ELISA inhibitory activity, judgment” value (anti-iodine antibody [2]; 10 mM) was “-”.

For `[I-].[K+]` [Potassium iodide], the ELISA inhibition rate (anti-iodine antibody [2]; 10 mM) was 0% and the “ELISA inhibitory activity, judgment” value (anti-iodine antibody [2]; 10 mM) was “-”.

With `N[C@@H](Cc1ccc(O)cc1)C(=O)N[C@@H](Cc1ccc(O)cc1)C(=O)N[C@@H](Cc1ccc(O)cc1)C(=O)O` [Trityrosine, trityrosine, reference compound] (H-Tyr-Tyr-Tyr-OH) the “Mean diameter of blue spots … (first value)” value ([1]; 1000 μg/site intradermal) was “--”, the “Mean diameter of blue spots … (second value)” value ([1]; 1000 μg/site intradermal) was “--” and the “Mean diameter of blue spots, non-sensitized guinea-pig” value ([1]; 1000 μg/site intradermal) was “--”.

For `N[C@@H](Cc1ccc(O)cc1)C(=O)N[C@@H](Cc1ccc(O)cc1)C(=O)O` [reference compound] (H-Tyr-Tyr-OH), the “Mean diameter of blue spots … (first value)” value ([1]; 1000 μg/site intradermal) was “--”, the “Mean diameter of blue spots … (second value)” value ([1]; 1000 μg/site intradermal) was “--” and the “Mean diameter of blue spots, non-sensitized guinea-pig” value ([1]; 1000 μg/site intradermal) was “--”.

With YYYYYY [L-Hexatyrosine] the ELISA inhibition rate (anti-iodine antibody [2]; 1 mM) was 0% and the “ELISA inhibitory activity, judgment” value (anti-iodine antibody [2]; 1 mM) was “-”.
